Data published in patent publication US8349851B2, “JAK kinase modulating compounds and methods of use thereof” (Ambit Biosciences Corp., priority 2009, dated 2013).

Tests used:
HEL 92.1.7 cells = assay: In vivo efficacy study in the mouse HELV617F liquid tumor model (survival); conditions: CB17 SCID mice, PO BID, 21 day dosing; Ambit Internal Compound 50 or 60 mg/kg, compound of Formula I 60 mg/kg, TGEN101348 120 mg/kg
Procedure: In Vivo Efficacy Study in the Mouse HELV617F Liquid Tumor Mouse Model
This study was conducted to determine the effect of a selected compound of Formula I on tumor progression and survival. CB 17 SCID mice (Charles River Labs) were pretreated with cyclophosphamide IP QD at 150 mg/kg for two consecutive days before being injected with cells. On Day 0, 75 mice were inoculated IV with 5e6 HEL 92.1.7 cells suspended in sterile saline. Animals were weighed on Day 8, and assigned to groups with similar mean body weights and similar standard deviations from the mean. Animals were dosed on Day 8 for a 21 day dosing period. Treatment groups were as follows (10 animals per group): First group was administered vehicle (Pharmatek #6), PO, BID; a second group was administered Ambit Internal Compound A prepared in Pharmatek #6, at 50 mg/kg PO, BID; and a third group was administered TGEN101348 prepared in Pharmatek #6, at 120 mg/kg PO, BID. An untreated group of 10 animals also served as control.
Another study was conducted using the same protocol, with the same controls and the following treatment groups: Ambit Internal Compound A prepared in Pharmatek #6 administered at 60 mg/kg BID and a selected compound of Formula I prepared in Pharmatek #6 at 60 mg/kg BID.

TEL-JAK cells = assay: In vivo efficacy study in the mouse TELJAK model (survival); conditions: CB17 SCID mice, BID for two weeks; Ambit Internal Compound 50 mg/kg BID, TGEN101348 100 mg/kg BID
Procedure: In Vivo Efficacy Study in the Mouse TELJAK Mouse Model
This study was conducted to determine the effect of a selected compound of Formula I on tumor progression and survival. CB17 SCID mice (Harlan Laboratories) were inoculated with 5e5 TEL-JAK cells via tail vein on day 0. Cells were allowed to establish in the animal, and on day 3, dosing was initiated as follows: Vehicle (Pharmatek #6) administered 50 uL at BID to a first group, Ambit Internal Compound prepared in Pharmatek #6 and administered at 50 mg/kg BID to a second group and TGEN101348 prepared in Pharmatek #6 to a third group at 100 mg/kg BID. Each treatment group (16 animals per group) received a twice daily dosing for a two week period. An untreated group of 10 animals also served as control.
A second study was conducted using the same protocol, with the same controls and the following treatment groups: Ambit Internal Compound A prepared in Pharmatek #6 administered at 60 mg/kg BID and a selected compound of Formula I prepared in Pharmatek #6 at 60 mg/kg BID.

JAK2 = target: T1, JAK2 (Homo sapiens, UniProt O60674); assay: Competition binding assay, JAK2; conditions: read-out: Binding Assay: JAK2 (active_KD)
T1 construct: made in house
Method in brief: (§1)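 JAK2 and JAK3 were each tested individually as T7 phage fusions or HEK-293-expressed DNA-tagged kinases, competing with compound for bead-immobilized biotinylated ligand. Eluted kinase was measured by quantitative PCR. Kd values came from eleven serial threefold dilutions.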

[1] = tested on: csTF-1 cells (GM-CSFR/JAK2/STAT5 pathway); assay: csTF-1 cell-based reporter assay; parameters: species or system human; conditions: Homo sapiens; GM-CSF at 2 ng/mL, 4 hours; read-out: Cell Assay: CS0017: CS TF-1 reporter assay: IC50
Method in brief: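 GM-CSF-dependent human csTF-1 cells with STAT5-driven beta-lactamase reporter (irf1 element), 2×10^5 cells/well, given serial compound dilutions plus 2 ng/mL GM-CSF in 0.5% DMSO for 4 hours at 30° C. Substrate added 2 h at room temperature; blue (460 nm)/green (530 nm) fluorescence read at 409 nm excitation.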

JAK3 = target: T2, JAK3 (Homo sapiens, UniProt P52333); assay: Competition binding assay, JAK3; conditions: read-out: Binding Assay: JAK3 (active_KD, ENZ)
T2 construct: made in house
Method in brief: as §1

AuroraB = target: T3, AuroraB (Homo sapiens, UniProt Q96GD4); assay: Competition binding assay, Aurora B
T3 construct: made in house
Excerpt: Methods for determining binding constant against Aurora B kinase are known to one of skill in the art. Exemplary methods are described in U.S. provisional application No. 61/294,413, and Fabian et al., Nature Biotechnology 2005, 23,329-336.
Competition binding assays used herein were developed, validated and performed as described in Fabian et al., Nature Biotechnology 2005, 23,329-336. Kinases were produced as fusions to T7 phage (See, Fabian et al. or WO04/015142) or alternatively, the kinases were expressed in HEK-293 cells and subsequently tagged with DNA for PCR detection (See, WO08/005310). For the binding assays, streptavidin-coated magnetic beads were treated with biotinylated affinity ligands for 30 min at rt to generate affinity resins. The liganded beads were blocked with excess biotin and washed with blocking buffer (SeaBlock (Pierce), 1% BSA, 0.05% Tween 20, 1 mM DTT) to remove unbound ligand and to reduce non-specific binding. […] Test compounds were prepared as 100× stocks in DMSO and rapidly diluted into the aqueous environment. DMSO was added to control assays lacking a test compound. Primary screen interactions were performed in polypropylene 384-well plates in a final volume of 34 μL, while Kd determinations were performed in polystyrene 96-well plates in a final volume of 135 μL. […] The kinase concentration in the eluates was measured by quantitative PCR. Each kinase was tested individually against each compound. Kds were determined using eleven serial threefold dilutions. A selectivity score, which is a quantitative measure of selectivity of a compound against a panel of enzymes, may be calculated for a compound by dividing the number of enzymes for which a compound meets a set criteria, (for example, a binding constant of 100 nM or less), by the total number of enzymes tested.

T2 sequence (P52333 822-1111 limits assumed): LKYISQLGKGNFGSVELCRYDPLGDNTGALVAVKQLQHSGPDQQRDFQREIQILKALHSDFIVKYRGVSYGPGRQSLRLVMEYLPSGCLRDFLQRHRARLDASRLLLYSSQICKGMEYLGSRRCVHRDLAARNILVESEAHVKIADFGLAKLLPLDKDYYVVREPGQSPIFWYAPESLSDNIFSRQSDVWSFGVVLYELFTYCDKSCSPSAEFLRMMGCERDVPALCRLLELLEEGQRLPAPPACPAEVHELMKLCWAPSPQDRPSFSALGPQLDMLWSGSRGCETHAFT
T3 sequence (Q96GD4 whole entry): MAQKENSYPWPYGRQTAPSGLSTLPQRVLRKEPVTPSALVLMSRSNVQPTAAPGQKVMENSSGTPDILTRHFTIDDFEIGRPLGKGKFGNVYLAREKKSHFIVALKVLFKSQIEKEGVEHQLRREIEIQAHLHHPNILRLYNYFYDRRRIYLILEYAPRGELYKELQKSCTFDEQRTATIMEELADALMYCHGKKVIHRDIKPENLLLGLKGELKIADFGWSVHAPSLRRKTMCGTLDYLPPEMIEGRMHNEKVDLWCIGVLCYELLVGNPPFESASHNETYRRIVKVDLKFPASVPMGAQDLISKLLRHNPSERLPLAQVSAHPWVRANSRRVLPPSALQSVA
T1 sequence (O60674 849-1124 limits assumed): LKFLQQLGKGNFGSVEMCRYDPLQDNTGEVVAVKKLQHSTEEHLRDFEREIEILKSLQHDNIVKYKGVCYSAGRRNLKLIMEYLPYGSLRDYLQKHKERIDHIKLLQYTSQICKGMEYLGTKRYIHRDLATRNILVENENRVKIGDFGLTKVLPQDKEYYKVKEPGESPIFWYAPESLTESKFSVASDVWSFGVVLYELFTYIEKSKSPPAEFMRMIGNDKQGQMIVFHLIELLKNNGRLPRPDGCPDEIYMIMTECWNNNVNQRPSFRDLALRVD

Structure (SMILES)	Kd (JAK2) [nM]	IC50 [1] [nM]	Kd (JAK3) [nM]	Kd (AuroraB) [nM]	increased life span (ILS) (HEL 92.1.7 cells)	increased life span (ILS) (TEL-JAK cells) [%]
Cc1cnc(Nc2ccc(OCCN3CCCC3)cc2)nc1Nc1cccc(S(=O)(=O)NC(C)(C)C)c1 [TGEN101348]	–	–	–	–	approximately 5%	30
O=C(c1cccc(F)c1)c1nc(Nc2cc[nH]n2)c2ccccc2n1 [Example 2, (4-(1H-pyrazol-3-ylamino)quinazolin-2-yl)(3-fluorophenyl)methanone]	> 10	> 500	> 100	> 200	–	–
Fc1ccc(C(F)(F)c2nc(Nc3cc(C4CC4)[nH]n3)c3ccccc3n2)cc1 [Example 10, N-(5-cyclopropyl-1H-pyrazol-3-yl)-2-(difluoro(4-fluorophenyl)methyl)quinazolin-4-amine]	1 to 10	≤ 100	≤ 10	> 200	–	–
Cc1ccc2c(Nc3cc(C)[nH]n3)nc(C(O)c3ccc(F)cc3)nc2c1 (racemic) [Example 25, (R,S)-(4-fluorophenyl)(7-methyl-4-(5-methyl-1H-pyrazol-3-ylamino)quinazolin-2-yl)methanol]	≤ 1	≤ 100	10 to 100	> 200	–	–
Cc1cc(Nc2nc(C(O)c3ccc(F)cc3)nc3cc(C(F)(F)F)ccc23)n[nH]1 (racemic) [Example 18, (R,S)-(4-fluorophenyl)(4-(5-methyl-1H-pyrazol-3-ylamino)-7-(trifluoromethyl)quinazolin-2-yl)methanol]	1 to 10	100 to 500	10 to 100	> 200	–	–

Continued, in another order:

Kd (JAK2) [nM]	IC50 [1] [nM]	Kd (JAK3) [nM]	Kd (AuroraB) [nM]	Structure (SMILES)	increased life span (ILS) (HEL 92.1.7 cells)	increased life span (ILS) (TEL-JAK cells) [%]
1 to 10	≤ 100	10 to 100	> 200	COc1ccc2c(Nc3cc(C)[nH]n3)nc(C(=O)c3ccc(F)cc3)nc2c1 [Example 30, (4-fluorophenyl)(7-methoxy-4-(5-methyl-1H-pyrazol-3-ylamino)quinazolin-2-yl)methanone]	–	–
≤ 1	≤ 100	10 to 100	> 200	Cc1cc(Nc2nc(C(=O)c3ccc(F)cc3)nc3ccccc23)n[nH]1 [Example 3, (4-fluorophenyl)(4-(5-methyl-1H-pyrazol-3-ylamino)quinazolin-2-yl)methanone]	–	–
